Measured values reported in ChEMBL document CHEMBL6071196, “Semisynthetic Tetramate-Containing Fungal Metabolites with Activity against Trichomonas vaginalis and Mycoplasma genitalium” (ACS Med Chem Lett, 2024).
≈ marks a conversion by molar mass, not a printed value. Calls of active or inactive are those of the source. No cut-off for these calls is given here.

Experiments:
Mycoplasma genitalium [1] = assay: Antibacterial activity against Mycoplasma genitalium Sea-2 assessed as bacterial growth inhibition incubated for 30 mins by qPCR analysis; format: functional, organism-based; details: Mycoplasmoides genitalium, Sea-2, 0.5 h
Mycoplasma genitalium [2] = assay: Antibacterial activity against Mycoplasma genitalium G37C assessed as bacterial growth inhibition incubated for 30 mins by qPCR analysis; format: functional, organism-based; details: Mycoplasmoides genitalium, 0.5 h
[3] = (§1) Selectivity index, ratio of IC50 for cytotoxicity against african green monkey Vero cells incubated for 48 hrs by celltiter blue assay to IC50 for antibacterial activity against Mycoplasma genitalium G37C assessed as bacterial growth inhibition incubated for 30 mins by qPCR analysis; format: toxicity, cell-based; details: read-out: Ratio IC50
Mycoplasma genitalium [4] = assay: Antibacterial activity against Mycoplasma genitalium Sea-1 assessed as bacterial growth inhibition incubated for 30 mins by qPCR analysis; format: functional, organism-based; details: Mycoplasmoides genitalium, Sea-1, 0.5 h
[5] = Selectivity index, ratio of IC50 for cytotoxicity against african green monkey Vero cells incubated for 48 hrs by celltiter blue assay to IC50 for antibacterial activity against Mycoplasma genitalium Sea-2 assessed as bacterial growth inhibition incubated for 30 mins by qPCR analysis; format: toxicity, cell-based; details: read-out: Ratio IC50
Mycoplasma genitalium [6] = assay: Antibacterial activity against Mycoplasma genitalium G37C assessed as growth inhibition at 2 uM relative to control; format: functional; details: Mycoplasmoides genitalium
[7] = as §1, with “to MIC” for “to IC50”, “for 7 days” for “for 30 mins”, “by phenol red reagent based microbroth dilution assay” for “by qPCR analysis”; format: toxicity, cell-based; details: read-out: Selectivity Index
Mycoplasma genitalium [8] = assay: Antibacterial activity against Mycoplasma genitalium G37C assessed as growth inhibition at 3 uM measured after 1 month relative to control; format: functional, organism-based; details: Mycoplasmoides genitalium, time 1.0 months
[9] = Selectivity index, ratio of IC50 for cytotoxicity against african green monkey Vero cells incubated for 48 hrs by celltiter blue assay to IC50 for antibacterial activity against Mycoplasma genitalium Sea-1 assessed as bacterial growth inhibition incubated for 30 mins by qPCR analysis; format: toxicity, cell-based; details: read-out: Ratio IC50
Mycoplasma genitalium [10] = assay: Antibacterial activity against Mycoplasma genitalium G37C assessed as bacterial growth inhibition incubated for 7 days by phenol red reagent based microbroth dilution assay; format: functional; details: Mycoplasmoides genitalium, 168 h, time 7 day
Trichomonas vaginalis = assay: Anti-trichomonal activity against Trichomonas vaginalis assessed as inhibition of parasite growth incubated for 18 hrs; format: functional, organism-based
[11] = Selectivity index, ratio of IC50 for cytotoxicity against african green monkey Vero cells incubated for 48 hrs by celltiter blue assay to EC50 for anti-trichomonal activity against Trichomonas vaginalis assessed as inhibition of parasite growth incubated for 18 hrs; format: toxicity, cell-based; details: read-out: Ratio IC50/EC50
Mycoplasma genitalium [12] = assay: Antibacterial activity against Mycoplasma genitalium G37C assessed as growth inhibition at 0.4 uM relative to control; format: functional; details: Mycoplasmoides genitalium
Mycoplasma genitalium [13] = assay: Antibacterial activity against Mycoplasma genitalium G37C assessed as growth inhibition at 0.6 uM measured after 1 month relative to control; format: functional, organism-based; details: Mycoplasmoides genitalium, time 1.0 months

| Structure (SMILES) | selectivity ratio at 48 h [7] | MIC90 (Mycoplasma genitalium [10]) | EC50 (Trichomonas vaginalis) | selectivity ratio at 48 h [11] | other results |
| --- | --- | --- | --- | --- | --- |
| C/C=C/C=C/[C@H]1C(C)=C[C@H]2C[C@@H](C)CC[C@@H]2[C@@]1(C)/C(O)=C1\C(=O)[C@H](COCc2cn(CCc3ccc(O)cc3)nn2)N(C)C1=O | 29.7 | 2.6 µM (≈ 1.6 µg/mL) | > 10000 nM | – | IC50 (Mycoplasma genitalium [1]): 1000 nM; IC50 (Mycoplasma genitalium [2]): 1200 nM; selectivity ratio at 48 h [3]: 64; IC50 (Mycoplasma genitalium [4]): 800 nM; selectivity ratio at 48 h [5]: 77; inhibition at 2 µM (Mycoplasma genitalium [6]): 90%; inhibition (Mycoplasma genitalium [8]): inactive; selectivity ratio at 48 h [9]: 96 |
| CC1=C[C@H]2C[C@@H](C)CC[C@@H]2[C@@](C)(/C(O)=C2\C(=O)[C@@H](CO)N(C)C2=O)[C@H]1/C=C/C=C/C[C@@H](C)O | 23.8 | 0.9 µM (≈ 0.412 µg/mL) | 60 nM | 315 | – |
| C/C=C/C=C/[C@H]1C(C)=C[C@H]2C[C@@H](C)CC[C@@H]2[C@@]1(C)/C(O)=C1/C(=O)N[C@H](CO)C1=O | 94.8 | 1 µM (≈ 0.4 µg/mL) | 800 nM | 119 | – |
| CCCCCC1=C(C)C[C@H]2C[C@@H](C)CC[C@@H]2[C@@]1(C)/C(O)=C1\C(=O)[C@@H](CO)N(C)C1=O | 13.1 | 29.9 µM (≈ 12.5 µg/mL) | > 10000 nM | > 8 | – |
| CCCCC[C@H]1[C@@H](C)C[C@H]2C[C@@H](C)CC[C@@H]2[C@@]1(C)/C(O)=C1\C(=O)[C@@H](CO)N(C)C1=O | 64 | 0.5 µM (≈ 0.21 µg/mL) | 2100 nM | > 16 | – |
| C/C=C/C=C/[C@H]1C(C)=C[C@H]2C[C@@H](C)CC[C@@H]2[C@@]1(C)/C(O)=C1\C(=O)[C@@H](COCc2cn(Cc3ccc(C(=O)O)cc3)nn2)N(C)C1=O | 1.5 | 19.9 µM (≈ 12.5 µg/mL) | 2200 nM | 12.8 | – |
| C/C=C/[C@@H]1C=C[C@@H]2C[C@H](C)CC[C@H]2[C@]1(C)/C(O)=C1/C(=O)N[C@@H](CO)C1=O | 40 | 2.2 µM (≈ 0.791 µg/mL) | 2500 nM | 35.9 | – |
| CCCCC[C@H]1C(C)=C[C@H]2C[C@@H](C)CC[C@@H]2[C@@]1(C)/C(O)=C1\C(=O)[C@@H](CO)N(C)C1=O | 32 | 3.8 µM (≈ 1.59 µg/mL) | 710 nM | > 170 | – |
| C/C=C/C=C/[C@H]1C(C)=C[C@H]2C[C@@H](C)CC[C@@H]2[C@@]1(C)/C(O)=C1\C(=O)[C@@H](CO)N(C)C1=O | 141 | 0.4 µM (≈ 0.165 µg/mL) | 1800 nM | 32.1 | inhibition at 0.4 µM (Mycoplasma genitalium [12]): 90%; inhibition (Mycoplasma genitalium [13]): inactive |
| C/C=C/[C@@H]1C=C[C@@H]2C[C@H](C)CC[C@H]2[C@]1(C)/C(O)=C1\C(=O)[C@H](CO)N(C)C1=O | 46.9 | 0.3 µM (≈ 0.112 µg/mL) | 3000 nM | 4.2 | – |
| C#CCOC[C@@H]1C(=O)/C(=C(/O)[C@@]2(C)[C@@H](/C=C/C=C/C[C@@H](C)O)C(C)=C[C@H]3C[C@@H](C)CC[C@@H]32)C(=O)N1C | 15.1 | 6.3 µM (≈ 3.12 µg/mL) | 3900 nM | 24.3 | – |
